Earlier results, collected in article PMC5404532, “Simplified Reversed Chloroquines To Overcome Malaria Resistance to Quinoline-Based Drugs” (Antimicrobial Agents and Chemotherapy, 2017).
Like-named read-outs stand apart in the source and are kept apart here.

Legend:
P. falciparum Dd2 (CQR) = settings: cited from earlier work
mouse spleen lymphocytes = settings: cited from earlier work
P. falciparum D6 (CQS) = settings: cited from earlier work
P. falciparum 7G8 (CQR) = settings: CQR 7G8, cited from earlier work

SMILES	IC50 (P. falciparum Dd2 (CQR); ref Burgess et al. (31))	Cytotoxicity (mouse spleen lymphocytes; ref Burgess et al. (31))	IC50 (P. falciparum D6 (CQS); ref Burgess et al. (31))	IC50 (P. falciparum 7G8 (CQR); ref Burgess et al. (31))	IC50 (P. falciparum Dd2 (CQR); ref Burgess et al. (33))	Cytotoxicity (mouse spleen lymphocytes; ref Burgess et al. (33))	IC50 (P. falciparum D6 (CQS); ref Burgess et al. (33))	IC50 (P. falciparum 7G8 (CQR); ref Burgess et al. (33))
CN(CCCNc1ccnc2cc(Cl)ccc12)CCCN1c2ccccc2CCc2ccccc21 [Compound 1]	5.3 nM	700 nM	2.9 nM	4 nM	–	–	–	–
Clc1ccc2c(NCCCN3CCNCC3)ccnc2c1 [Compound 16]	–	–	–	–	6.8 nM	23,000 nM	4.3 nM	–
Clc1ccc2c(NCCCN3CCN(C(c4ccccc4)c4ccccc4)CC3)ccnc2c1 [Compound 3]	–	–	–	–	2.6 nM	1,100 nM	1.9 nM	11 nM
